Measured values published in patent US10710996B2, “Pyrido-azaheterecydic compound and preparation method and use thereof” (SHANGHAI INSTITUTE OF MATERIA MEDICA, CHINESE ACADEMY OF …, priority 2015, dated 2020).
Where “and” joins values, the source holds several entries; their conditions need not be identical. Identical values can stand only once. Like-named read-outs stand apart in the source and are kept apart here. One block for each compound: values may come before it.

Experiments:
[1] = target: IGF1R (Homo sapiens, UniProt P08069); test: Tyrosine kinase inhibition rate (ELISA), IGF1R; type: biochemical; details: read-out: Inhibtion rate (%) IGF1R
[2] = target: ErbB4 (Homo sapiens, UniProt Q15303); test: Tyrosine kinase inhibition rate (ELISA), ErbB4; type: biochemical; details: read-out: Inhibtion rate (%) ErbB4
Sequence of ErbB4 (Q15303 26-1308, species assumed): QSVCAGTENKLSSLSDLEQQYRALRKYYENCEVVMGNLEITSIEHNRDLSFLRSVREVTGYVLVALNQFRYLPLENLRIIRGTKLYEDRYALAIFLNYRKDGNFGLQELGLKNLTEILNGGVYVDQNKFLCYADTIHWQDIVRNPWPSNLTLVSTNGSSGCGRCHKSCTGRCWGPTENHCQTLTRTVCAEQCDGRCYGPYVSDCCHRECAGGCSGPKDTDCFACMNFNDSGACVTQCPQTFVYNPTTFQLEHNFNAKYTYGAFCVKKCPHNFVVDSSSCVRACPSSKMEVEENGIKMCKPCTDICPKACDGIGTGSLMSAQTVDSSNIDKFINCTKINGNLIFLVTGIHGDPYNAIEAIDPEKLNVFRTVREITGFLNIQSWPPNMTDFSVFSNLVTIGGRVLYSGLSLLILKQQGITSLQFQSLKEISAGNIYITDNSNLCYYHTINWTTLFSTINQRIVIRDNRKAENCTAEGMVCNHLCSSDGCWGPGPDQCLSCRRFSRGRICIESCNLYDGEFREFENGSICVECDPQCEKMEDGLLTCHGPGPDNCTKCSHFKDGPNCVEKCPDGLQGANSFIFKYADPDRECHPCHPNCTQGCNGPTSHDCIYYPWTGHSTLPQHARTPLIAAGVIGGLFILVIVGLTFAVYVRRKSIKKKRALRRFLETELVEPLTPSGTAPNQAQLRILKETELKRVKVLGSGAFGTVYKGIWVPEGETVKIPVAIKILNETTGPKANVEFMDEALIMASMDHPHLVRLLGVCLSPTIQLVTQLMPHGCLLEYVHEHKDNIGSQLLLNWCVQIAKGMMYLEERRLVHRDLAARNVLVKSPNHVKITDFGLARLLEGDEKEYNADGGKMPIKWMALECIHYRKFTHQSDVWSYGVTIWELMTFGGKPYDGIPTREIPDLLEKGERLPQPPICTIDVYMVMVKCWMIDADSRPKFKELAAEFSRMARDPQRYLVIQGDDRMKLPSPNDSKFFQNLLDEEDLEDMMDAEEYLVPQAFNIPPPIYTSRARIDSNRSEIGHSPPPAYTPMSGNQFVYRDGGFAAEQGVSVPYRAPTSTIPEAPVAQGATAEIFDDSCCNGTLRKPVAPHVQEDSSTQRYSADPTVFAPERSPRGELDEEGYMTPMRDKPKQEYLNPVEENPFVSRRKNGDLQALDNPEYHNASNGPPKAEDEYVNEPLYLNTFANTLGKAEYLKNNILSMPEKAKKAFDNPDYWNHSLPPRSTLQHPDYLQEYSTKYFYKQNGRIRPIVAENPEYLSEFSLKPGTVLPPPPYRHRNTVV

[3] = test system: EBC-1 cells; test: Inhibition of c-Met-mediated EBC-1 cell proliferation (SRB staining); type: cell-based; details: Homo sapiens, 72 hours treatment
Protocol: The inhibitory effect of the compounds on the growth of non-small cell cancer EBC-1 cell (a cell line in which Met is continually activated due to the amplification of MET gene, and is a Met-dependent tumor cell line) was measured by sulforhodamine B (SRB) staining assay. A certain amount of EBC-1 cells in their logarithmic growth phase were seeded in 96-well plates at 90 μL per well and cultured overnight, then 10 μL of different concentrations of compounds or solvent control were added thereto, three wells for each concentration. After treated by the compound for 72 hours, the adherent cells were removed of culture medium and fixed with 10% (w/v) trichloroacetic acid (100 μL/well) at 4° C. for 1 hr followed by rinsing with distilled water five times. After drying at room temperature, 100 μL of SRB solution (dissolved in 1% glacial acetic acid at 4 mg/mL) was added to each well to incubate and stain the cells for 15 min at room temperature, then unbound SRB was washed off with 1% glacial acetic acid for five times. After drying at room temperature, 100 μL of 10 mM Tris solution was added to each well. The optical density (OD value) at 515 nm was read on a VERSMax microplate reader. […] The experiment was repeated twice. The IC50 data was calculated as a range based on the test results of concentrations set in the initial screening test.

[4] = target: EGFR (Homo sapiens, UniProt P00533); test: Tyrosine kinase inhibition rate (ELISA), EGFR; type: biochemical; details: read-out: Inhibtion rate (%) EGFR
[5] = target: EPH-A2 (Homo sapiens, UniProt P29317); test: Tyrosine kinase inhibition rate (ELISA), EPH-A2; type: biochemical; details: read-out: Inhibtion rate (%) EPH-A2
[6] = test system: human lung cancer EBC-1 xenograft tumor; test: Growth inhibition of subcutaneous xenograft tumor of human lung cancer EBC-1 in nude mice; type: in vivo; details: for RTV (mean ± SD) / T/C (%) / TV (mm^3, mean ± SD) d21 / Weight (g) d21: d21
Protocol: EBC-1 cells were subcutaneously inoculated into the armpit on the right side of the nude mice in an amount of 5×10^6/mouse respectively to form xenograft tumor, which were then passaged in nude mice for three generations. Tumor tissue that was growing vigorously was cut into about 1.5 mm^3 under sterile conditions, and subcutaneously inoculated into the armpit on the right side of the nude mice, and the diameter of the xenograft tumor was measured with a vernier caliper. The diameter of the subcutaneous xenograft tumor in nude mice was measured with a vernier caliper. […] The diameter of xenograft tumor was measured twice a week and the body weight of mice was weighed during the whole experiment. The tumor volume (TV) was calculated by the following equation: TV=½×a×b^2, wherein a and b represent the length and width, respectively. The relative tumor volume (RTV) was calculated based on the measured results, and the calculation equation thereof is: RTV=Vt/V0, wherein V0 is the tumor volume measured when the mice were divided in different cages and administered (i.e., d0) and Vt is the tumor volume measured each time.

[7] = target: PDGFR-β (Homo sapiens, UniProt P09619); test: Tyrosine kinase inhibition rate (ELISA), PDGFR-β; type: biochemical; details: read-out: Inhibtion rate (%) PDGFR-β
[8] = target: RET (Homo sapiens, UniProt P07949); test: Tyrosine kinase inhibition rate (ELISA), RET; type: biochemical; details: read-out: Inhibtion rate (%) RET
Sequence of RET (P07949 29-1114, species assumed): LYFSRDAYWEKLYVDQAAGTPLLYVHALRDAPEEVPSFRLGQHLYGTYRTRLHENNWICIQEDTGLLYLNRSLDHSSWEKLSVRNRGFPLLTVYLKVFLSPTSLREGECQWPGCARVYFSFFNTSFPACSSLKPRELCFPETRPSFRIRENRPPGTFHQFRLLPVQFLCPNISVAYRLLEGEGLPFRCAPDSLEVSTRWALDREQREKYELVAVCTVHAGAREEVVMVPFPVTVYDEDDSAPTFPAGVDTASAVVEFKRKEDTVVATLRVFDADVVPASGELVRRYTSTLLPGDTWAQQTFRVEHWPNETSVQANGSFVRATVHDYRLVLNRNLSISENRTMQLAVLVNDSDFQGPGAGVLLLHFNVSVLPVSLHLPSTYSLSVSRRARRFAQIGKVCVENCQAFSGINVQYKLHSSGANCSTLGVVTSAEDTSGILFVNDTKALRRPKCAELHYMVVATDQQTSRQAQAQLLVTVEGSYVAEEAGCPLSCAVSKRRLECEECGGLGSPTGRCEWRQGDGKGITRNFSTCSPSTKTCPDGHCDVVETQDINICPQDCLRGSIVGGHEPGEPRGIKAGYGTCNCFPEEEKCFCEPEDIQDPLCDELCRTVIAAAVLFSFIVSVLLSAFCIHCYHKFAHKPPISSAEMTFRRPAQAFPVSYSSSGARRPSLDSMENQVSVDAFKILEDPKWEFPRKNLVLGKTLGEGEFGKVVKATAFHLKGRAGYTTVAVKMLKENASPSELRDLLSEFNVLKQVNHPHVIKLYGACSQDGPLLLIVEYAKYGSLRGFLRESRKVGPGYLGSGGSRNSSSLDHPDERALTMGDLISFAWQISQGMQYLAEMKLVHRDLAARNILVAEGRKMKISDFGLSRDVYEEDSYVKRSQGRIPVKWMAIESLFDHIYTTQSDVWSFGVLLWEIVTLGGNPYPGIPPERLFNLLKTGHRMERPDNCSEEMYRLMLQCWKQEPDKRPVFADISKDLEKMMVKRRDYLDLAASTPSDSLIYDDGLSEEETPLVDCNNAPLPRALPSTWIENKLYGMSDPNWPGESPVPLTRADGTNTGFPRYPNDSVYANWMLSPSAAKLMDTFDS

[9] = target: ABL (Homo sapiens, UniProt P00519); test: Tyrosine kinase inhibition rate (ELISA), ABL; type: biochemical; details: read-out: Inhibtion rate (%) ABL
[10] = target: Flt-1 (Homo sapiens, UniProt P17948); test: Tyrosine kinase inhibition rate (ELISA), Flt-1; type: biochemical; details: read-out: Inhibtion rate (%) Flt-1
Sequence of Flt-1 (P17948 27-1338, species assumed): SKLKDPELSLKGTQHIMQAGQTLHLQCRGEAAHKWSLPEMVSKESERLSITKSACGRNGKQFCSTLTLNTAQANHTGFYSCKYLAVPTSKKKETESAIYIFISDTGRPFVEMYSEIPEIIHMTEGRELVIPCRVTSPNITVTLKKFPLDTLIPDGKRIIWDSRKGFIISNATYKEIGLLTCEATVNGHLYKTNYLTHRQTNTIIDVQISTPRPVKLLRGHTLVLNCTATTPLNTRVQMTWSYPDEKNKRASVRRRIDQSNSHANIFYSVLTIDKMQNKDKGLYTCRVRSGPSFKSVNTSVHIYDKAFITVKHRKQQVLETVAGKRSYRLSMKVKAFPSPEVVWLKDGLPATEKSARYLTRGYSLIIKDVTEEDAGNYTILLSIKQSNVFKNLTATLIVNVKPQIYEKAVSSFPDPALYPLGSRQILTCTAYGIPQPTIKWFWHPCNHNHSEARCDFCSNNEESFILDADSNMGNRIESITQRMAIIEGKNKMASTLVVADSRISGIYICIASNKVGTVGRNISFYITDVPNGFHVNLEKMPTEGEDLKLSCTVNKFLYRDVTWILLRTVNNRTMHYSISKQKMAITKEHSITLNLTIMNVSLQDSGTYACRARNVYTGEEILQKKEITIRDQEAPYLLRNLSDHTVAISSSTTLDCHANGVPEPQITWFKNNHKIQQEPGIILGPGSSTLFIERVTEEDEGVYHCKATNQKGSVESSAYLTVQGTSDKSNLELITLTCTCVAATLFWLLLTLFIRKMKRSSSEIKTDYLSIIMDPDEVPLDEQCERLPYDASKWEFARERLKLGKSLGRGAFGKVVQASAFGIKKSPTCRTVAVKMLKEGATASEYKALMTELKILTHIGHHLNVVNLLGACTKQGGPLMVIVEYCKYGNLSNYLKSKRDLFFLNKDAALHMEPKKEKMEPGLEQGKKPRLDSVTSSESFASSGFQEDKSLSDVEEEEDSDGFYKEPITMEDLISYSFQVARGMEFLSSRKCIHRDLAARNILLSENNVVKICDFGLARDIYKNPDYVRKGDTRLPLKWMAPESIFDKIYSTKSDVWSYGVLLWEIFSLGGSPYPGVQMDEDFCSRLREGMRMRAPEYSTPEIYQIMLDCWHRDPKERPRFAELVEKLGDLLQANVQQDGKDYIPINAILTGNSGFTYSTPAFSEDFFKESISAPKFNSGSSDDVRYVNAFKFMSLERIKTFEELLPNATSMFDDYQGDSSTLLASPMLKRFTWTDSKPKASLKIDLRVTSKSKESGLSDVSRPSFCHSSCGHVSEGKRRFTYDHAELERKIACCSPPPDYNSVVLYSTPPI

[11] = Pharmacokinetic test in rats; type: in vivo, Sprague-Dawley rats; details: rat
Protocol: 14 male Sprague-Dawley rats, weigh 200-220 g, were randomly divided into 4 groups with 4/3 in each group. The rats were intragastrically and intravenously administered with compound 7S and 8S respectively. The compounds were dissolved in normal saline containing 5% of DMSO and solubilized with 5% of tween-80 (Tween 80), and the final concentration of the sample was 1 mg/ml.
The rats were fasted 12 h before the test, free drinking water. They were fed 2 h after administration.
gavage administration: 0.25 h, 0.5 h, 1.0 h, 2.0 h, 3.0 h, 4.0 h, 6.0 h, 8.0 h and 24 h after administration;
intravenous administration: 5 min, 0.25 h, 0.5 h, 1.0 h, 2.0 h, 4.0 h, 6.0 h, 8.0 h and 24 h after administration;
0.3 ml venous blood was collected from the retrobulbar venous plexus of rats at the above time point, and placed in a heparinized tube and centrifuged at 11000 rpm for 5 min. The plasma was separated and frozen in a refrigerator at −20° C.
The concentrations of the compounds in rat plasma were measured by LC/MS/MS.
Pharmacokinetic parameters after administration were calculated using the non-compartmental model of the Phoenix 1.3 software (Pharsight, U.S.A.).
Peak concentration Cmax and peak time Tmax were the measured values;
The area under the curve of the drug concentration vs. time AUC0-t value: calculated according to trapezoidal rule; AUC0-∞=AUC0-t+Ct/ke, Ct is the plasma concentration at the last measurable time point, ke is the elimination rate constant;
Elimination half-life t1/2=0.693/ke;
Average retention time MRT=AUMC/AUC.
Clearance rate CL=D/AUC0-∞;
Volume of distribution at steady state Vss=CL×MRT

[12] = target: T1, c-Met kinase (Homo sapiens, UniProt P08581); test: Inhibitory effect on c-Met kinase activity at molecular level (ELISA); type: biochemical;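 further: recombinant c-Met kinase domain with 5 µM ATP, 1 h at 37 °C, substrate phosphorylation detected by anti-phosphotyrosine PY99 ELISA at 490 nm versus DMSO negative control, ATP-free wells as blank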
T1 construct: c-Met kinase domain recombinant protein diluted with 49 μL of the reaction buffer was added
T1 sequence (P08581 1078-1345 limits assumed): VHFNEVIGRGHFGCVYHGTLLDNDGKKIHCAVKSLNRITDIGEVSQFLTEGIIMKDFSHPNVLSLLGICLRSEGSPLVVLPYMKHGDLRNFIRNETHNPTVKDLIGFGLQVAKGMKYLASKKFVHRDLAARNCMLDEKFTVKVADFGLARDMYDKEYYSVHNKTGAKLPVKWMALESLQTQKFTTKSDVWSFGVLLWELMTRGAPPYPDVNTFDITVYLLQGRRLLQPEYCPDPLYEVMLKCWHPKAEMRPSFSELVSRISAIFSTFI
Protocol: Experiment for Preliminarily Evaluating the Inhibitory Effect on the Activity of Receptor Tyrosine Kinase c-Met at Molecular Level
After discarding the liquid in the wells, the plate was washed with T-PBS (0.1% Tween-20 in PBS) in an amount of 200 μL/well three times, each for 5 minutes. The ELISA plate was dried in an oven at 37° C. for 1-2 hours. 50 μl of adenosine triphosphate (ATP) solution diluted with reaction buffer (50 mM 4-hydroxyethylpiperazine ethanesulfonic acid (HEPES) pH 7.4, 50 mM MgCl2, 0.5 mM MnCl2, 0.2 mM Na3VO4, 1 mM dithiothreitol (DTT)) to a final concentration of 5 μM was added to each well. The compounds were diluted to an appropriate concentration with DMSO (1 μL/well) or a solution containing DMSO in a corresponding concentration (negative control well), and then c-Met kinase domain recombinant protein diluted with 49 μL of the reaction buffer was added therein to initiate the reaction, with two ATP-free control wells for each test. The plate was placed in a shaker (100 rpm) at 37° C. for reacting 1 hour, and washed with T-PBS three times. Primary antibody PY99 diluent was added in an amount of 100 μL/well to allow the reaction in a shaker at 37° C. for 0.5 hour, and then the plate was washed with T-PBS three times. Then the secondary antibody horseradish peroxidase labeled goat anti-mouse IgG diluent was added in an amount of 100 μL/well, and the plate was placed in a shaker at 37° C. for reacting 0.5 hour, and then washed with T-PBS three times. 2 mg/ml of o-phenylenediamine (OPD) coloring solution (diluted with 0.1 M citric acid-sodium citrate buffer (pH=5.4) containing 0.03% H2O2) was then added at 100 μL/well and reacted at 25° C. for 1-10 min with light blocked (ultrasound was required to dissolve OPD, the coloring solution was prepared when needed). The reaction was stopped by adding 2 M of H2SO4 in an amount of 50 μL/well, and a wavelength-adjustable microplate reader SPECTRA MAX 190 was read at 490 nm.
The inhibition rate of the sample was calculated by the following equation:

[13] = target: ALK (Homo sapiens, UniProt Q9UM73); test: Tyrosine kinase inhibition rate (ELISA), ALK; type: biochemical; details: read-out: Inhibtion rate (%) ALK
[14] = target: c-Src (Homo sapiens, UniProt P12931); test: Tyrosine kinase inhibition rate (ELISA), c-Src; type: biochemical; details: read-out: Inhibtion rate (%) c-Src
[15] = target: FGFR1 (Homo sapiens, UniProt P11362); test: Tyrosine kinase inhibition rate (ELISA), FGFR1; type: biochemical
[16] = target: PDGFR-α (Homo sapiens, UniProt P16234); test: Tyrosine kinase inhibition rate (ELISA), PDGFR-α; type: biochemical; details: read-out: Inhibtion rate (%) PDGFR-α
Sequence of PDGFR-α (P16234 24-1089, species assumed): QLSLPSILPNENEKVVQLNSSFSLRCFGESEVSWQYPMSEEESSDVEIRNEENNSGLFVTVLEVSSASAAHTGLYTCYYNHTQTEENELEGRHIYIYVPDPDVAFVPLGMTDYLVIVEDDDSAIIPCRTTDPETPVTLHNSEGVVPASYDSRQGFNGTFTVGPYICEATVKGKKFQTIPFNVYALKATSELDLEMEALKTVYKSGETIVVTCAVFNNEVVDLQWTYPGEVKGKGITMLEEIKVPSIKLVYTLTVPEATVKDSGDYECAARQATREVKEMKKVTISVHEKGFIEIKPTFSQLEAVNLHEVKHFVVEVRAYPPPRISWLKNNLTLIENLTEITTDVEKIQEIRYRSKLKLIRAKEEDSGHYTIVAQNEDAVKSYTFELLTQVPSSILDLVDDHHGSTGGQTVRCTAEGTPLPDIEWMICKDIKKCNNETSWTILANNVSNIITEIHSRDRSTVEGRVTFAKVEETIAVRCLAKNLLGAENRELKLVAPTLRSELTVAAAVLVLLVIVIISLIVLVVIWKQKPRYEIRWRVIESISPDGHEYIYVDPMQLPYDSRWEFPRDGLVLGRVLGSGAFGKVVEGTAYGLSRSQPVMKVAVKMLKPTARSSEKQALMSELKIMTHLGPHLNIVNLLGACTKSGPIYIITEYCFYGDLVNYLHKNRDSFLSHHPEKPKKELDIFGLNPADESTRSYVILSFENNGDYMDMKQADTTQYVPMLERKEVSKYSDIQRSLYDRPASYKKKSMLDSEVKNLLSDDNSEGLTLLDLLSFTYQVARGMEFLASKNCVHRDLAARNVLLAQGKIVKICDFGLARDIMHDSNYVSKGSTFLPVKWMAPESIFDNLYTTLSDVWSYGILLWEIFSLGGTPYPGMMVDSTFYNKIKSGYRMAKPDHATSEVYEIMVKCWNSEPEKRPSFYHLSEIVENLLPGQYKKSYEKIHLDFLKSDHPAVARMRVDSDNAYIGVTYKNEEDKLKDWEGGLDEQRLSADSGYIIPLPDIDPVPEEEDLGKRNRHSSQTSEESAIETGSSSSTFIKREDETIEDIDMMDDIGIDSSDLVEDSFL

[17] = 100 mg/kg oral once a day for 21 days
[18] = male, Sprague-Dawley, plasma, po, intragastric (gavage) 10 mg/kg, mean
[19] = male, Sprague-Dawley, plasma, intravenous 5 mg/kg, mean

Compound: Nc1ncnc2c1c(-c1cccc(OCc3ccccc3)c1)cn2[C@H]1C[C@@H](CN2CCC2)C1 [AEW541, reference compound]
inhibition at 1 µM [1]: 70.9%

Compound: O=C(Nc1ccc(F)cc1)C1(C(=O)Nc2ccc(Oc3ccnc4cc(OCCN5CCOCC5)ncc34)c(F)c2)CC1 [Compound 7S, N-(3-fluoro-4-((7-(2-morpholinoethoxy)-1,6-naphthyridin-4-yl)oxy)phenyl)-N-(4-fluorophenyl)cyclopropyl-1,1-dicarboxamide]
IC50 [3]: 10 to 100 nM | inhibition at 1 µM [4]: 8.6% | inhibition at 1 µM [5]: 87.9% | inhibition at 1 µM [2]: 6.6% | inhibition at 1 µM [1]: 18.1% | TV (mm^3, mean ± SD) d0 ([6]; 10 mg/kg qd/21 po): 128 ± 34 mm^3 | Weight (g) d0 ([6]; 10 mg/kg qd/21 po): 18.2 g | RTV (mean ± SD) ([6]; 10 mg/kg qd/21 po): 6.09 ± 2.17 | T/C (%) ([6]; 10 mg/kg qd/21 po): 46.24% | TV (mm^3, mean ± SD) d21 ([6]; 10 mg/kg qd/21 po): 764 ± 258 mm^3 | Weight (g) d21 ([6]; 10 mg/kg qd/21 po): 22.0 g | tumor volume growth inhibition rate GI [6, 17]: 96.5% | tumor weight inhibition rate [6, 17]: 86.9% | TV (mm^3, mean ± SD) d0 ([6]; 100 mg/kg qd/21 po): 128 ± 39 mm^3 | Weight (g) d0 ([6]; 100 mg/kg qd/21 po): 17.4 g | RTV (mean ± SD) ([6]; 100 mg/kg qd/21 po): 1.26 ± 0.85 | T/C (%) ([6]; 100 mg/kg qd/21 po): 9.58% and 9.5% | TV (mm^3, mean ± SD) d21 ([6]; 100 mg/kg qd/21 po): 181 ± 156 mm^3 | Weight (g) d21 ([6]; 100 mg/kg qd/21 po): 20.7 g | safety in vivo ([6]; within effective dose): safe and non-toxic within effective dose | inhibition at 1 µM [7]: 48.7% | inhibition at 1 µM [8]: 78.2% | inhibition at 1 µM [9]: 23.3% | inhibition at 1 µM [10]: 70.3% | bioavailability ([11]; male, Sprague-Dawley, plasma, oral, gavage 10 mg/kg vs intravenous 5 mg/kg, read-out: F (absolute bioavailability)): 51.8% | AUC(0-inf) [11, 18]: 16700 ng·h/mL | AUC(0-t) [11, 18]: 16500 ng·h/mL | Cmax [11, 18]: 5450 ng/mL | Tmax [11, 18]: 1.75 h | half-life [11, 18]: 1.66 h | AUC(0-inf) [11, 19]: 16000 ng·h/mL | AUC(0-t) [11, 19]: 15900 ng·h/mL | clearance [11, 19]: 5.23 mL/min/kg | half-life [11, 19]: 1 h | Vd ([11]; male, Sprague-Dawley, plasma, intravenous 5 mg/kg, mean, read-out: Vss): 0.346 L/kg | MRT ([11]; male, Sprague-Dawley, plasma, iv, 5 mg/kg, intravenous 5 mg/kg, mean, read-out: MRT): 1.11 h | MRT ([11]; male, Sprague-Dawley, plasma, po, 10 mg/kg, intragastric (gavage) 10 mg/kg, mean, read-out: MRT): 2.6 h | MRT ([11]; intragastric (gavage) 10 mg/kg, mean, 10 mg/kg): 2.653 h | IC50 [12]: 1 to 10 nM | inhibition at 1 µM ([12]; 1 μM, read-out: Inhibtion rate (%) c-Met): 100% | inhibition at 1 µM [13]: 21.7% | inhibition at 1 µM [14]: 55.9% | inhibition at 1 µM ([15]; read-out: Inhibtion rate (%) FGFR1): 36.3% | inhibition at 1 µM [16]: 55.6%

Compound: AZD4547 [reference compound]
Inhibtion rate (%) FGFR1 ([15]; 1 μM): 100%

Next, values leading:

inhibition at 1 µM [2]: 71.1%
Compound: CN(C)C/C=C/C(=O)Nc1cc2c(Nc3ccc(F)c(Cl)c3)ncnc2cc1O[C@H]1CCOC1 [BIBW2992, reference compound]

inhibition at 1 µM [7]: 55.6% | inhibition at 1 µM [8]: 80.6% | inhibition at 1 µM [10]: 77.4% | inhibition at 1 µM [16]: 54.8%
Compound: CCN(CC)CCNC(=O)c1c(C)[nH]c(/C=C2\C(=O)Nc3ccc(F)cc32)c1C [Su11248, reference compound]
